Source: patent publication US11872210B2, “Thiol isomerases inhibitors and use thereof” (WESTERN NEW ENGLAND UNIVERSITY, priority 2017, dated 2024)

Assays:
human washed platelets = assay: Collagen stimulated platelet aggregation; type: cell-based; settings: collagen 1 μg/mL, 3 minutes
Experimental: (§1) Human Platelet Preparation: 50 mL of blood was drawn from drug free, consenting individuals, into a syringe containing 5 mL sodium citrate (4% w/v) and 7.5 mL warmed ACD (85 mM sodium citrate, 71 mM citric acid and 110 mM glucose). Blood was centrifuged at 102 g for 20 minutes to obtain platelet-rich plasma (PRP), which was then decanted and 104 prostacyclin (PGI2 125 μg/mL, solubilized in ethanol) added. Platelets were pelleted by centrifugation at 1413 g for 10 minutes, platelet poor plasma was discarded and the pellet resuspended in 25 mL Tyrode's-HEPES buffer (134 mM NaCl, 2.9 mM KCl, 0.34 mM Na2HPO4, 12 mM NaHCO3, 20 mM HEPES, 1 mM MgCl2 and 5 mM glucose pH 7.3), 3 mL of ACD and 10 μL PGI2 were added and then following centrifugation at 1413 g for 10 minutes, the platelet pellet was re-suspended to the appropriate cell density using Tyrode's buffer. Platelets were rested for 30 minutes at 30° C. to allow platelet responses to recover.
Platelet Aggregation: 445 μL of washed platelets at (4×10^8 cells/mL) were incubated for 5 minutes with vehicle (0.1% (v/v) DMSO) or 54 zafirlukast or montelukast. 50 μL of collagen 1 μg/mL (final), was added and light transmission monitored for 3 minutes at 37° C. with constant stirring (1200 rpm) using an aggregometer (Chronolog, USA).
Statistical analyses: All raw data was analyzed by 1-way ANOVA and where appropriate normalized to vehicle. GraphPad Prism was used to perform statistical analysis by ANOVA or students T test. The level of significance of p values is as follows, *p<0.05,**p<0.01, ***p<0.005. Data presented are mean+/−standard error of the mean.
Zafirlukast inhibits platelet aggregation: Human washed platelets (4×10^8 cells/mL) were pre-treated with 0.1 μM-10 μM zafirlukast or vehicle. Platelets were stimulated with collagen 1 μg/mL and allowed to aggregate for 3 minutes. Aggregation traces representative of the response were obtained and dose responses compared.

platelets [1] = assay: α-granule secretion of platelets; type: cell-based, human; settings: 0.1 μM-10 μM
Experimental: (§2) Platelet responses in the presence of zafirlukast, (0.1 μM-10 μM) were tested in a range of platelet functional assays including aggregation, granule secretion and spreading studies.
(§3) Flow Cytometry: 5 μL platelets (2×10^8 cells/mL) was added to 42 μL HEPES-buffered saline with 1 mM Ca2+. To this, 0.5 μL zafirlukast (0.6 μM-10 μM) or montelukast (0.6 μM-10 μM) or vehicle (0.1% (v/v) DMSO) was added and incubated for 5 minutes. 1 μL anti-human CD62p (1:500 dilution) and 1 μL anti-fibrinogen FITC conjugate (1:500 dilution) or 2 μL of anti-PAC-1 antibody were added to samples. Platelets were treated with 5 μL CRP-XL (1 ug/mL) or 5 μL Tyrode's for 20 minutes in the dark. Samples were then fixed with 450 μL of 0.2% (v/v) paraformaldehyde and analyzed on an accuri C6 flow cytometer (BD Biosciences, UK), with the threshold set to 20,000. Platelet populations were gated and 10,000 events recorded.

whole human blood = assay: Thrombus formation under flow (in vitro, collagen coated Cellix capillaries); type: cell-based
Experimental: Thrombus Formation under flow: Human blood was drawn into 3.2% (w/v) sodium citrate and labelled with 2 μM DIOC-6 for an hour. A […] biochip was coated with 1 μL Collagen (100 μg/mL) for 1 hour. Blood was then incubated with vehicle (0.1% (v/v) DMSO) or zafirlukast (10 μM) for 5 minutes prior to perfusion over collagen coated Cellix microfluidic cells at a shear rate of 20 dynes/cm^2. Images were recorded for 10 minutes perfusion by confocal microscopy (Nikon Al Microscope, Nikon, Japan) and analyzed using ImageJ. Whole human blood labelled with the lipophilic dye DIOC-6 was incubated with zafirlukast (10 μM) or vehicle (0.1% (v/v) DMSO) for 5 minutes before perfusion over […] capillaries coated with collagen (100 μg/mL) at an arterial shear rate of 20 dynes/cm^2. Images were recorded for 10 minutes using confocal microscopy and analyzed using ImageJ. The median fluorescence intensity was determined and compared to max intensity response; the more intense the fluorescence the larger the volume of thrombus formed.

[2] = tested on: platelets (fibrinogen receptor αIIbβ3); assay: Fibrinogen binding to αIIbβ3 by flow cytometry; type: cell-based, human
Experimental: as §1, §3

washed platelets = assay: Dense granule secretion (ATP, lumi-aggregometer); type: cell-based, human; settings: 10 μM; collagen 1 μg/mL; vehicle 1.25 nM
Experimental: as §1
Dense granule secretion: 395 μL of washed platelets were added to a cuvette and incubated with 5 μL of zafirlukast or vehicle (0.1% (v/v) DMSO) for 3 minutes at 37° C. 50 μL Chronolume substrate was added and incubated for a further 2 minutes. […]
Washed platelets (4×10^8 cells/mL), were pre-treated with zafirlukast (0.1-10 μM) or vehicle for 3 minutes. […] Statistical analysis was calculated using a one-way ANOVA (n=3), *P<0.05.

platelets [3] = assay: Platelet spreading upon collagen; type: cell-based; settings: 0.1 μM-10 μM
Experimental: as §2

OVCar8 cells = assay: PrestoBlue cell proliferation assay, OVCar8; type: cell-based, human; settings: OVCar8, ovarian cancer, 24 hours treatment
Experimental: Cells were plated at 6,000 cells/well in a 96-well plate and treated with the indicated concentration of zafirlukast 24 hours later. Cells were allowed to grow for an additional 24 hours before alterations in growth were measured by the PrestoBlue cell proliferation assay in triplicate. Fluorescence readings with an excitation at 570 nm and emission of 600 nm were collected and treated samples were converted to a percentage of the untreated controls. OVCar8 (human ovarian cancer cell line), HCT116 (human colon cancer), HeLa (cervical cancer cell line) and MDA-MB-231 (breast cancer cell line) cell lines were examined for their ability to inhibit cell proliferation. […] Table 1 illustrates the results of a cell proliferation assay testing zafirlukast against OVCar8 cells, HCT116 cells, HeLa cells and MDA-MB-231 cells.

IC50 (OVCar8 cells; Homo sapiens, OVCAR-8, 24 h): 5 to 10 µM
IC50 (OVCar8 cells): 6 µM
SMILES: COc1cc(C(=O)NS(=O)(=O)c2ccccc2C)ccc1Cc1cn(C)c2ccc(NC(=O)OC3CCCC3)cc12 [zafirlukast, 4-(5-cyclopentyloxycarbonylamino-1-methylindol-3-ylmethyl)-3-methoxy-N-o-tolylsulfonylbenzamide]
inhibition of platelet aggregation (in words) (human washed platelets; 0.1 μM): did not significantly inhibit
inhibition of platelet aggregation (in words) (human washed platelets; 0.3 μM): did not significantly inhibit
platelet aggregation, normalized to vehicle (human washed platelets; 0.6 μM): 54.8%
platelet aggregation, normalized to vehicle (human washed platelets; 1.25 μM): 54.9%
platelet aggregation, normalized to vehicle (human washed platelets; 2.5 μM): 40.00%
platelet aggregation, normalized to vehicle (human washed platelets; 5 μM): 22.47%
platelet aggregation, normalized to vehicle (human washed platelets; 10 μM): 18.1%
inhibition at 0.6 µM (human washed platelets; Homo sapiens, Platelet, 0.05 h, 0.6 μM): 45%
inhibition at 1.25 µM (human washed platelets; Homo sapiens, Platelet, 0.05 h, 1.25 μM): 45%
inhibition at 2.5 µM (human washed platelets; Homo sapiens, Platelet, 0.05 h, 2.5 μM): 60%
inhibition at 5 µM (human washed platelets; Homo sapiens, Platelet, 0.05 h, 5 μM): 77.5%
inhibition at 10 µM (human washed platelets; Homo sapiens, Platelet, 0.05 h, 10 μM): 81.9%
α-granule secretion (in words) (platelets [1]): inhibit
final size of the thrombus (in words) (whole human blood; 10 μM, 10 minutes perfusion): significantly diminished compared to the vehicle
median fluorescence intensity (MFI) of thrombus (whole human blood; 10 μM, after 8 minutes of flow, 20 dynes/cm^2, vehicle 89.15): 74.86 Au
inhibition at 10 µM (whole human blood; Homo sapiens, arterial shear 20 dynes/cm^2, read-out: inhibition of median fluorescence intensity compared to vehicle): 14.2%
fibrinogen binding (fluorescence) ([2]; 10 μM, CRP-XL stimulated, vehicle 12520 Au): 3696 Au
inhibition at 10 µM ([2]; Homo sapiens, Platelet, 10 μM, CRP-XL stimulated): 64.5%
fibrinogen binding (in words) ([2]; lower concentrations (below 10 μM)): trend towards inhibition
mean ATP secretion (washed platelets): 0.327 nM
platelet spreading upon collagen (in words) (platelets [3]): inhibit
